In ChEMBL document CHEMBL1159174, “Spiroketal glycomimetics: the synthesis of a conformationally restrained Sialyl Lewis X mimic” (Bioorg Med Chem Lett, 1995) one finds inhibition, Kd and IC50 data, which are given here for 2 compounds.

Each structure is given as a SMILES string.

Experiment [1] deals with T1, E-selectin (Homo sapiens) (UniProt P16581).
T1 sequence (whole entry): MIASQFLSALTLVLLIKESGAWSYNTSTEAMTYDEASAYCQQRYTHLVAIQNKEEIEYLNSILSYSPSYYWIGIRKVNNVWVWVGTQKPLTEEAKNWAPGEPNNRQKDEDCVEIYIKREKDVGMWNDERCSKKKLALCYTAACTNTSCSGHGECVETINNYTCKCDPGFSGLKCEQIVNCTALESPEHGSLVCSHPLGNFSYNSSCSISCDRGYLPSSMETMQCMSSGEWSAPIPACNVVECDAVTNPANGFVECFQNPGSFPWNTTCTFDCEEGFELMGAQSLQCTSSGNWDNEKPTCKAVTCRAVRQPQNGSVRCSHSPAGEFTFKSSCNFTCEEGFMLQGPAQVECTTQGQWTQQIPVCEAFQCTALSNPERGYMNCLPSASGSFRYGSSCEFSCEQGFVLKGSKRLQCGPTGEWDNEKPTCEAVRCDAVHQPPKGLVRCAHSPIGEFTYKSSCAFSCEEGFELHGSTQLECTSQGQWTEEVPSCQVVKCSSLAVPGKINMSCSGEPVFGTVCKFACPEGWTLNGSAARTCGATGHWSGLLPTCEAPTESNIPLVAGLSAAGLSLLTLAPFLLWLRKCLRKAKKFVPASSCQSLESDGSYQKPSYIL
The experiment is described as follows: Ability to inhibit the binding to Selectin E immobilized on SPA beads of radiolabeled HL-60 cell membrane was determined at concentration of 10 mM. In kind it is cell membranes.

Experiment [2] addresses T2, E-selectin (Homo sapiens, UniProt P16581).
T2 sequence (P16581 whole entry): T1 sequence (whole entry)
The experiment is described as follows: Affinity of compound to Selectin E was determined.

Experiment [3] has as its target T2, E-selectin. Briefly: Ability to inhibit the binding to Selectin E immobilized on SPA beads of radiolabeled HL-60 cell membrane was determined. Format: cell membranes.

As for `CC(=O)NC1C(O)CC(OC2CCO[C@]3(CCC(OC4OC(C)C(O)C(O)C4O)CO3)C2)(C(=O)O)OC1[C@H](O)[C@H](O)CO` (stereo partly drawn), the inhibition (as a rule, the percentage by which the read-out fell short of the control) in experiment [1] came to 35%.

Turning to `CC(=O)N[C@H]1[C@H]([C@H](O)[C@H](O)CO)O[C@@](O[C@H]2[C@@H](O)[C@@H](CO)O[C@@H](O[C@@H]([C@H](O[C@@H]3O[C@@H](C)[C@@H](O)[C@@H](O)[C@@H]3O)[C@H](C=O)NC(C)=O)[C@H](O)CO)[C@@H]2O)(C(=O)O)C[C@@H]1O` [SIALYL LEWIS X], on E-selectin [2], binding was characterised by a dissociation constant (Kd) of 1000 µM. At E-selectin [3], the IC50 (in general, the concentration that inhibits the measured activity by half) was found to be 300 µM.
